Data published in patent publication US9127040B2, “Regulation of sodium channels by PLUNC proteins” (The University of North Carolina at Chapel Hill, priority 2011, dated 2015).

Tests used:
βENaC = biological target: T1, βENaC (Homo sapiens, UniProt P51168); experiment: Biotinylated peptide pull-down of ENaC subunits from HEK293T cells; format: binding; settings: subunits individually expressed, biotinylated peptide
T1 construct: expressed in transfected cells; host or cells: HEK293T cells (lysate)
T1 sequence (P51168 1-640): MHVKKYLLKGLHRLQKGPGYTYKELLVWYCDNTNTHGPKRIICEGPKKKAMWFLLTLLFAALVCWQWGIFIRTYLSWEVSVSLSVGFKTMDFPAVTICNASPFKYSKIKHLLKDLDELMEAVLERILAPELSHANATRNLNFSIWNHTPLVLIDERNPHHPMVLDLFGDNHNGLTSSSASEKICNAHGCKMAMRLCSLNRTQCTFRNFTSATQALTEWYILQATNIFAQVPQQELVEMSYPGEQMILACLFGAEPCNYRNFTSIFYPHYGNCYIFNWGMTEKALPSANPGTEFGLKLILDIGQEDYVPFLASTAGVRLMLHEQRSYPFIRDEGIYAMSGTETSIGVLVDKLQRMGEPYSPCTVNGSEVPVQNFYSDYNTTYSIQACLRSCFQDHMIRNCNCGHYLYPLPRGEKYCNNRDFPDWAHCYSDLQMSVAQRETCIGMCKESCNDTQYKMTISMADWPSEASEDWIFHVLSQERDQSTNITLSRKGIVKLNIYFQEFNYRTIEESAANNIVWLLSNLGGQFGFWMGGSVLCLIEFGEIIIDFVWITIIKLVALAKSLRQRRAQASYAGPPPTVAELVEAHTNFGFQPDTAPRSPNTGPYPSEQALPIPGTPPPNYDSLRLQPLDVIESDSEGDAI
Experimental: HEK293T cells were transfected with double-tagged human ENaC subunits with HA and V5 epitopes at the N- and C-termini, respectively, in combination with wild-type untagged subunit cDNA. When all three ENaC subunits were expressed, 0.5 μg of each subunit were transfected per well. When expressed individually, 0.75 μg of the subunit were transfected per well. The transfected cells were lysed 24 h later using NP-40 buffer with 1× complete EDTA-free protease inhibitor (Roche, Basel, Switzerland). The lysate was centrifuged at 16,300×g for 15 minutes at 4° C. and the supernatant collected. Protein concentration was determined using the BCA assay and 500 μg of protein plus 0.25 mg peptide and 100 μL of neutravidin were added to a spin column and rotated end-over-end at 4° C. for 24 h (all ThermoFisher Scientific, Rockford, Ill., USA). Flow-through was collected by centrifugation at 1000×g for 30 s. The beads were then washed 5× with NP-40 buffer. Bound protein was eluted by boiling at 95° C. for 10 minutes in 75 μL of 2×LDS NuPAGE sample buffer with 1× sample reducing agent followed by centrifugation at 16,300×g for 2 minutes. Samples were resolved on 4-12% Bis-Tris gels in MES and transferred to a nitrocellulose membrane using iBlot, setting P3 for 8 min (Invitrogen, Carlsbad, Calif., USA). The membrane was probed using 1:1000 anti-V5 antibody (Invitrogen, Carlsbad, Calif., USA) overnight at 4° C. in 3% fish gelatin in TBS-T. The blot was then incubated for 1 h at room temperature with an ECL sheep anti-mouse IgG secondary antibody and detected by ECL reagent (ThermoFisher Scientific, Waltham, Mass., USA) or by incubation with a goat anti-mouse IRDye secondary antibody and analyzed by an Odyssey infrared imaging system (LI-COR Biosciences, Lincoln, Nebr., USA).
Peptide pull-down assays were performed as described above. Samples were eluted by the addition of 100 μL of 0.1 M sodium citrate, pH 5.5, 0.1% SDS to the beads and incubating at 100° C. for 2 minutes, followed by centrifugation at 16,300×g for 2 minutes. […]

ENaC [1] = biological target: T2, ENaC (Homo sapiens, UniProt P37088+P51168+P51170); experiment: ASL height 6 h after exposure, alanine scan of S18; format: cell-based
T2 construct: measured the transepithelial voltage under thin film conditions in human bronchial epithelial cultures; endogenous in cells; host or cells: primary human bronchial epithelial cultures (normal or CF donors)
T2 sequence (P37088 1-669): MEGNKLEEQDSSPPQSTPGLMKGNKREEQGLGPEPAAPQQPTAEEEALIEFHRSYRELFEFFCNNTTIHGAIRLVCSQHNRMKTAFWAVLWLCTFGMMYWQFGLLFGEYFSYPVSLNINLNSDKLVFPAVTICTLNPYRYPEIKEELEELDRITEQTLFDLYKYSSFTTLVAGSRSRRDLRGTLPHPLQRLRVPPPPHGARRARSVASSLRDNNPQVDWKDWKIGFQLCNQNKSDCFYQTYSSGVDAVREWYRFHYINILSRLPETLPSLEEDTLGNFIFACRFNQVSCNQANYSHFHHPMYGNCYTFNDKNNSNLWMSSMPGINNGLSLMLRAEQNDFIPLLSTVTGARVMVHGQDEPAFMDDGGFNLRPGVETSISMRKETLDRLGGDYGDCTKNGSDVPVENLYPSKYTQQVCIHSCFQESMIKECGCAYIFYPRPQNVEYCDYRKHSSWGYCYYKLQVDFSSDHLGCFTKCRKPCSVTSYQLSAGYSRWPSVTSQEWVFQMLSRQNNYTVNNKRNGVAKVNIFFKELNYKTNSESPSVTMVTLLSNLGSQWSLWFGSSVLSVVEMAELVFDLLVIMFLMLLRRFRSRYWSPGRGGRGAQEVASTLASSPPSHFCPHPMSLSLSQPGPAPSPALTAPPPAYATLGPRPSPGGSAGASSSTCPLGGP
T2 sequence (P51168 1-640): T1 sequence (P51168 1-640)
T2 sequence (P51170 1-649): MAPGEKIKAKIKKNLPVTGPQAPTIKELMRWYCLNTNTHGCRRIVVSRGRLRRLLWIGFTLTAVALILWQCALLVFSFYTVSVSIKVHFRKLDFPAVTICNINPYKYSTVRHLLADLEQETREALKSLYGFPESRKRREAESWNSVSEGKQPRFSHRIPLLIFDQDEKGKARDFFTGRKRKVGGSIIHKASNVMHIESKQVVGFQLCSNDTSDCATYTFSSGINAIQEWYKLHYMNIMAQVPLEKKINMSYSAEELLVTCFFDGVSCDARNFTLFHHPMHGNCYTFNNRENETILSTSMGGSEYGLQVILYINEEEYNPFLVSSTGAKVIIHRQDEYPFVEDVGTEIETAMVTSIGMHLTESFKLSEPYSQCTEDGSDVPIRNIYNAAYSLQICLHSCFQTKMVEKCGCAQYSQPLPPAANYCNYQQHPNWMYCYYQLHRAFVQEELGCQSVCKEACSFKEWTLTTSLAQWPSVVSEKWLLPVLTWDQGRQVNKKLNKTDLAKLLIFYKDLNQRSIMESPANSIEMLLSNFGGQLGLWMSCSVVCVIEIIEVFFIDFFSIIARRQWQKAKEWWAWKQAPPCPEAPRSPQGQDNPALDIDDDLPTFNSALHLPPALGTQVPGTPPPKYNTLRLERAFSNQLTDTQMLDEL
Experimental: To label the ASL, PBS containing 10 kDa Rhodamine dextran (0.2-2 mg/mL; Invitrogen, Carlsbad, Calif., USA) was added to HBEC mucosal surfaces as previously described (Tarran et al., Mol. Cell 8:149 (2001)). When added, peptides with or without 100 nM neutrophil elastase, 1 U/mL aprotinin, activated neutrophil supernatant (ANS) (Haynes et al., Am. J. Physiol. Heart Circ. Physiol. 294:H379 (2008)) or 10 μM sivelestat (Sigma-Aldrich, St Louis, Mo., USA) were added to the mucosal surface along with the Rhodamine dextran. Bumetanide (100 μM) was added to the serosal solution.
ASL height was measured 6 h after exposure to vehicle, control peptide, S18 or S18 with specific residues mutated to alanine as outlined in FIG. 31. […] NB, G1, G2 and A18 were not mutated. […] All n=6.

CF HBECs = settings: 8 h ASL height
Experimental: To label airway surface liquid, Ringer containing Texas Red-dextran (2 mg/ml; Invitrogen) was added to human bronchial epithelial culture mucosal surfaces. Perfluorocarbon was added mucosally to prevent evaporation of the airway surface liquid and the culture placed in a chamber containing 100 μl Ringer on the stage of a Leica SP5 confocal microscope with a 63× glycerol immersion objective. 5 points per culture were scanned and an average airway surface liquid height determined. For confocal microscopy human bronchial epithelial cultures were bathed serosally in a modified Ringer solution containing (mM): 116 NaCl, 10 NaHCO3, 5.1 KCl, 1.2 CaCl2, 1.2 MgCl2, 20 TES, 10 glucose, pH 7.4). At all other times, human bronchial epithelial cultures were maintained in a modified BEGM growth medium which contained 24 mM NaHCO3 gassed with 5% CO2.

serine proteases = experiment: Endogenous protease activity (BGAR-MCA cleavage) on mucosal surface of human bronchial epithelial cultures; format: cell-based
Experimental: (§1) For cell-free assays, reactions were carried out in 50 μl Ringer in a 96 well plate format with 100 μM BGAR-MCA. To measure endogenous protease activity in human bronchial epithelial cultures, 30 μl Ringer with 100 μM BGAR-MCA were placed directly onto the mucosal surfaces of human bronchial epithelial cultures grown on 12 mm T-clear inserts and the cultures were assayed in 12 well plates.

trypsin = experiment: Cell-free fluorogenic assay, trypsin cleavage of BGAR-MCA; format: biochemical; settings: 50 ng/ml rSPLUNC1 or 2 U/ml aprotinin; 1.0 or 0.3 U/ml trypsin
Experimental: as §1

ENaC [2] = biological target: T2, ENaC; experiment: Transepithelial voltage (PD), thin film conditions, human bronchial epithelial cultures; format: cell-based; set-up: reduction of transepithelial voltage: dose or concentration left out as unconfirmed
Text: Tissue procurement and cell culture: Cells were harvested by enzymatic digestion from human bronchial tissue as previously described under a protocol approved by the UNC School of Medicine IRB (Tarran et al., J. Gen. Physiol. 127:591 (2006)). Human excess donor lungs and excised recipient lungs were obtained at the time of lung transplantation from portions of main stem or […] bronchi and cells were harvested by enzymatic digestion. All preparations were maintained at an air-liquid interface in a modified bronchial epithelial medium and used 2-5 weeks after seeding on 12 mm T-Clear inserts (Corning Costar) coated with human placental type VI collagen (Sigma). Phosphate buffered saline (PBS) was used for washing human bronchial epithelial culture mucosal surfaces. HBECs were maintained at an air-liquid interface in a modified bronchial epithelial growth medium (BEGM) with 5% CO2 at 37° C. and used 2-5 weeks after seeding on 12-mm T-clear inserts (Corning-Costar, Corning, N.Y., USA) (Randell, Methods Mol. Biol. 742:285 (2011)).
(§2) A single-barreled potential difference-sensing electrode was placed in the airway surface liquid by micromanipulator and used in conjunction with a macroelectrode in the serosal solution to measure transepithelial voltage using a voltmeter (World Precision Instruments). […] Transepithelial resistance was routinely measured using the EVOM system (WPI) as previously described (Tarran et al., J. Gen. Physiol. 127:591 (2006)).

[3] = biological target: T3, αENaC-eGFP and βENaC-mCherry (Homo sapiens, UniProt P37088+P51168); experiment: Acceptor-photobleaching FRET between fluorescently tagged ENaC subunits; format: cell-based; settings: one hour of exposure
T3 construct: expressed in transfected cells
Text: Ai, cartoon of αENaC-eGFP and βENaC-mCherry under basal conditions (γENaC not shown). Aii We hypothesize that S18 binding to the extracellular loop of βENaC (1) induces a conformational change in ENaC which is reflected as altered intracellular FRET (2). This change may facilitate NEDD4-2-induced ubiquitination (3), leading to internalization of αβγENaC (4). […] In contrast, exposure to aprotinin had no effect. All n=8-10. C, Typical confocal images of HEK cells expressing αγENaC and βENaC-eGFP before and 1 h after 100 μM S18. Cell outlines are traced in white.
Since ENaC is regulated by NEDD4-2 binding to its C-termini, which leads to ubiquitination of its N-termini and internalization, we propose that S18 causes a conformational change in ENaC, leading to increased ubiquitination followed by internalization (FIG. 21A). As a first step towards understanding the mechanism of action of SPLUNC1, we performed FRET on fluorescently tagged ENaCs. […] Furthermore, βENaC-eGFP internalized upon S18 binding (FIG. 21C), consistent with our surface biotinylation data from oocytes.

ENaC [4] = biological target: T2, ENaC; experiment: Transepithelial electrical resistance in human bronchial epithelial cultures; format: cell-based; settings: 50 ng/ml SPLUNC1 30 min or amiloride 10 min; effects not additive
Text: as §2, with “([…]” for “(Tarran”

Question: Which “binding to βENaC (pull-down)” value (βENaC) does the source give for “ADGGLLLLNNPPPPQTVV (Control peptide sequence) [ABC, reference compound]” here?
Answer: The value was “No β-ENaC was observed in the elution”.

Question: What about the ASL height (ENaC [1]) of the same compound?
Answer: The ASL height was “no effect on ASL height”.

Question: For aprotinin [reference compound], which “CF ASL hyperabsorption” value (CF HBECs) is on record?
Answer: The value was “reduces CF ASL hyperabsorption”.

Question: And the “CF ASL hyperabsorption in the presence of neutrophil elastase” value (CF HBECs; neutrophil elastase)?
Answer: The value was “did not prevent neutrophil elastase from activating ENaC”.

Question: What about the “BGAR-MCA cleavage on human bronchial epithelial mucosal surfaces” value (serine proteases) of the same compound?
Answer: The value was “inhibited”.

Question: What about the “inhibition of trypsin cleavage of fluorogenic substrate BGAR-MCA” value (trypsin) of the same compound?
Answer: Its value is ~100%.

Question: And the “rate of inhibition of the transepithelial voltage” value (ENaC [2]; rSPLUNC1 vs aprotinin addition, effects not additive)?
Answer: Its value is “identical rates”.

Question: And the “FRET between αENaC-eGFP and βENaC-mCherry” value [3]?
Answer: The value was “no effect”.

Question: For `N=C(N)NC(=O)c1nc(Cl)c(N)nc1N` [amiloride, reference compound], which “reduction of transepithelial voltage” value (ENaC [2]; amiloride for 10 min (FIG. 4 legend), n=12) is on record?
Answer: Its value is 54%.

Question: And the “increase of transepithelial electrical resistance” value (ENaC [4])?
Answer: The value was ~33%.
